Measurements: ChEMBL document CHEMBL1138246, “Ester prodrugs of cyclic 1-(S)-[3-hydroxy-2-(phosphonomethoxy)propyl]-5-azacytosine: synthesis and antiviral activity” (J Med Chem, 2007)
Converted amounts (≈) assume the structure as drawn.

Legend:
[1] = system: Mammalian orthoreovirus 1; test: Antiviral activity against Reovirus 1 in Vero cells reduction of virus-induced cytopathogenicity after 4 days; format: functional, organism-based; settings: Mammalian orthoreovirus 1, Vero, 96 h
Human betaherpesvirus 5 [2] = format: functional, organism-based; settings: Human betaherpesvirus 5, AD169, HEL
HEL [3] = test: Cytotoxicity against HEL cells assessed as cell growth after 3 days; format: functional, Homo sapiens
Coxsackievirus B4 [4] = format: functional, organism-based; settings: Enterovirus B, Vero
[5] = system: Respiratory syncytial virus; format: functional, organism-based; settings: human respiratory syncytial virus, HeLa
[6] = system: Moloney murine sarcoma virus; settings: C3H
[7] = system: Vesicular stomatitis virus; test: microbe, parasite or virus in culture; settings: HeLa
[8] = system: Human immunodeficiency virus 2; format: functional, organism-based; settings: Human immunodeficiency virus 2, ROD, CCRF-CEM, 96 h
MOLT-3 = test: Cytotoxicity against MOLT3 cells assessed as alteration in morphology after 3 days; format: functional, Homo sapiens
Human alphaherpesvirus 3 [9] = format: functional, organism-based; settings: Human alphaherpesvirus 3, OKA, HEL
HeLa = test: Cytotoxicity against HeLa cells assessed as alteration in morphology after 3 days; format: functional, cell-based; settings: Homo sapiens, 72 h
[10] = system: Vesicular stomatitis virus; test: microbe, parasite or virus in culture; settings: HEL
Human respirovirus 3 = test: Antiviral activity against Parainfluenza 3 in Vero cells reduction of virus-induced cytopathogenicity after 4 days; format: functional, organism-based; settings: Human respirovirus 3, Vero, 96 h
Human adenovirus 2 = format: functional, organism-based; settings: Human mastadenovirus C, HEL
Vero = test: (§1) Cytotoxicity against Vero cells assessed as alteration in morphology after 3 days; format: cell-based, Chlorocebus sabaeus; settings: Chlorocebus sabaeus, Vero, 72 h
Punta Toro virus = test: Antiviral activity against Punta Toro virus in Vero cells reduction of virus-induced cytopathogenicity after 4 days; format: functional, organism-based; settings: 96 h
Human betaherpesvirus 5 [11] = format: functional, organism-based; settings: Human betaherpesvirus 5, Davis, HEL
[12] = system: Human immunodeficiency virus 1; format: functional, organism-based; settings: Human immunodeficiency virus 1, 3B, CCRF-CEM, 96 h
Human alphaherpesvirus 3 [13] = format: functional, organism-based; settings: Human alphaherpesvirus 3, 07-1, HEL
Sindbis virus = test: Antiviral activity against Sindbis virus in Vero cells reduction of virus-induced cytopathogenicity after 4 days; format: functional, organism-based; settings: 96 h
Human alphaherpesvirus 2 [14] = format: functional, organism-based; settings: Human alphaherpesvirus 2, Lyons, HEL
CCRF-CEM = test: Cytotoxicity against CEM cells assessed as cell growth after 3 days; format: functional; settings: Homo sapiens, 72 h
Human alphaherpesvirus 2 [15] = format: functional, organism-based; settings: Human alphaherpesvirus 2, G, HEL
HEL [16] = test: Cytotoxicity against HEL cells assessed as alteration in morphology after 3 days; format: functional; settings: Homo sapiens, 72 h
[17] = Cytotoxicity against HSB2 cells assessed as alteration in morphology after 3 days; format: functional, Homo sapiens, CCRF-HSB-2
[18] = Cytotoxicity against C3H cells assessed as alteration in morphology after 3 days; format: cell-based, Mus musculus; settings: for MCC at 72 h: mouse, C3H cells
Coxsackievirus B4 [19] = format: functional, organism-based; settings: Enterovirus B, HeLa
[20] = as §1; format: cell-based, Chlorocebus sabaeus; settings: chlorocebus sabaeus, Vero cells
[21] = Homo sapiens, HEL, 72 h, read-out: CC50
[22] = Homo sapiens, MOLT-3, 72 h, read-out: MCC
[23] = Homo sapiens, CCRF-HSB-2, 72 h, read-out: MCC

Row | SMILES | EC50 [1] | EC50 (Human betaherpesvirus 5 [2]) | CC50 (HEL [3]; [21]) | EC50 (Coxsackievirus B4 [4]) | EC50 [5] | EC50 [6] | EC50 [7] | EC50 [8] | EC50 (Human alphaherpesvirus 3 [9]) | EC50 [10] | EC50 (Human respirovirus 3) | EC50 (Human adenovirus 2) | EC50 (Punta Toro virus) | EC50 (Human betaherpesvirus 5 [11]) | EC50 [12] | EC50 (Sindbis virus) | EC50 (Human alphaherpesvirus 2 [14]) | EC50 (Human alphaherpesvirus 2 [15]) | MCC (HEL [16]) | EC50 (Coxsackievirus B4 [19]) | further results
1 | Nc1ncn(C[C@@H](CO)OCP(=O)(O)O)c(=O)n1 | > 100 µg/mL | 0.23 µg/mL (≈ 0.821 µM) | 225 µg/mL (≈ 803 µM) | > 100 µg/mL | > 100 µg/mL | ≥ 4 µg/mL | > 100 µg/mL | 20 µg/mL (≈ 71.4 µM) | 0.06 µg/mL (≈ 0.214 µM) | > 100 µg/mL | > 100 µg/mL | 0.71 µg/mL (≈ 2.53 µM) | > 100 µg/mL | 0.082 µg/mL (≈ 0.293 µM) | 20 µg/mL (≈ 71.4 µM) | > 100 µg/mL | 0.24 µg/mL (≈ 0.857 µM) | 0.45 µg/mL (≈ 1.61 µM) | > 100 µg/mL | > 100 µg/mL | MCC (MOLT-3; [22]): 16 µg/mL; EC50 (HeLa): > 100 µg/mL; EC50 (Vero): > 100 µg/mL; EC50 (Human alphaherpesvirus 3 [13]): 0.039 µg/mL (≈ 0.139 µM); CC50 (CCRF-CEM): 30 µg/mL (≈ 107 µM); MCC [17, 23]: 16 µg/mL; EC50 ([18]; Mus musculus, C3H, 72 h): > 20 µg/mL
2 | Nc1ccn(C[C@@H](CO)OCP(=O)(O)O)c(=O)n1.O.O [CIDOFOVIR] | > 31.5 µg/mL | 0.15 µg/mL | 76 µg/mL | > 31.5 µg/mL | > 31.5 µg/mL | > 4 µg/mL | > 31.5 µg/mL | > 20 µg/mL | 0.09 µg/mL | > 31.5 µg/mL | > 31.5 µg/mL | 2 µg/mL | > 31.5 µg/mL | 0.18 µg/mL | > 20 µg/mL | > 31.5 µg/mL | 0.42 µg/mL | 0.65 µg/mL | > 31.5 µg/mL | > 31.5 µg/mL | MCC (HeLa): > 31.5 µg/mL; MCC at 72 h [20]: > 31.5 µg/mL; EC50 (Human alphaherpesvirus 3 [13]): 0.03 µg/mL; MCC [17, 23]: 60 µg/mL; MCC at 72 h [18]: 20 µg/mL
3 | Nc1nc2c(ncn2COC(CO)CO)c(=O)[nH]1 [GANCICLOVIR] | – | 1.68 µg/mL (≈ 6.58 µM) | 122 µg/mL (≈ 478 µM) | – | – | – | – | – | – | – | – | – | – | 1.29 µg/mL (≈ 5.05 µM) | – | – | 0.0014 µg/mL (≈ 0.00549 µM) | 0.0036 µg/mL (≈ 0.0141 µM) | > 100 µg/mL | – | –
4 | CCCCCCCCCCCCCCCCOCCOP1(=O)CO[C@@H](Cn2cnc(N)nc2=O)CO1 (some centres undefined) | 16 µg/mL (≈ 30.2 µM) | 0.00038 µg/mL (≈ 0.000716 µM) | – | 16 µg/mL (≈ 30.2 µM) | > 3.2 µg/mL | > 4 µg/mL | > 3.2 µg/mL | > 0.8 µg/mL | 0.0014 µg/mL (≈ 0.00264 µM) | > 3.2 µg/mL | 16 µg/mL (≈ 30.2 µM) | < 0.512 µg/mL | 16 µg/mL (≈ 30.2 µM) | 0.00014 µg/mL (≈ 0.000264 µM) | > 0.8 µg/mL | 16 µg/mL (≈ 30.2 µM) | 0.004 µg/mL (≈ 0.00754 µM) | 0.082 µg/mL (≈ 0.155 µM) | 16 µg/mL | > 3.2 µg/mL | CC50 (HEL [3]): 6.4 µg/mL (≈ 12.1 µM); MCC (MOLT-3): 0.56 µg/mL; MCC (HeLa): 16 µg/mL; MCC at 72 h [20]: 80 µg/mL; EC50 (Human alphaherpesvirus 3 [13]): 0.0008 µg/mL (≈ 0.00151 µM); CC50 (CCRF-CEM): 2 µg/mL (≈ 3.77 µM); MCC [17]: 1.6 µg/mL; MCC at 72 h [18]: 20 µg/mL
5 | CC(C)(C)C(=O)OCOP1(=O)CO[C@@H](Cn2cnc(N)nc2=O)CO1 (some centres undefined) | > 100 µg/mL | 0.061 µg/mL (≈ 0.162 µM) | 14 µg/mL (≈ 37.2 µM) | > 100 µg/mL | > 20 µg/mL | > 20 µg/mL | > 20 µg/mL | > 20 µg/mL | 0.11 µg/mL (≈ 0.292 µM) | > 20 µg/mL | > 100 µg/mL | 0.069 µg/mL (≈ 0.183 µM) | > 100 µg/mL | 0.067 µg/mL (≈ 0.178 µM) | > 20 µg/mL | > 100 µg/mL | 0.24 µg/mL (≈ 0.638 µM) | 0.32 µg/mL (≈ 0.85 µM) | > 40 µg/mL | > 20 µg/mL | MCC (MOLT-3; [22]): ≥ 4 µg/mL; MCC (HeLa): 100 µg/mL; MCC at 72 h [20]: > 100 µg/mL; EC50 (Human alphaherpesvirus 3 [13]): 0.02 µg/mL (≈ 0.0531 µM); CC50 (CCRF-CEM): 18 µg/mL (≈ 47.8 µM); MCC [17, 23]: 4 µg/mL; MCC at 72 h [18]: 100 µg/mL
6 | NC(=O)c1ncn([C@@H]2O[C@H](CO)[C@@H](O)[C@H]2O)n1 [RIBAVIRIN] | 200 µg/mL (≈ 819 µM) | – | – | > 200 µg/mL | 24 µg/mL (≈ 98.3 µM) | – | 24 µg/mL (≈ 98.3 µM) | – | – | 120 µg/mL (≈ 491 µM) | 120 µg/mL (≈ 491 µM) | – | 40 µg/mL (≈ 164 µM) | – | – | 120 µg/mL (≈ 491 µM) | – | – | > 200 µg/mL | 90 µg/mL (≈ 369 µM) | MCC (HeLa): > 200 µg/mL; MCC at 72 h [20]: > 200 µg/mL
